Active and inactive are the calls of the source. The rule behind the calls is not given here.
Legend:
Nucleic Acid = experiment: Protection against ferrous and hydrogen peroxide-induced single strand breakage of pBR322 DNA at 50 uM after 30 mins using ethium bromide staining; details: Escherichia coli
[1] = Antioxidant activity against ferrous and hydrogen peroxide-induced hydroxyl radical assessed inhibition of radical-mediated 2-deoxyribose damage at 100 uM after 45 mins; assay type: functional
[2] = Antioxidant activity assessed as ABTS radical scavenging activity after 6 mins by cation decolorization assay; assay type: functional
[3] = Antioxidant activity assessed as superoxide radical anion scavenging activity after 30 mins by xanthine/xanthine oxidase method; assay type: functional
[4] = system: Radical scavenging activity; experiment: Antioxidant activity assessed as DPPH radical scavenging activity after 30 mins; assay type: functional

SMILES	Activity (Nucleic Acid)	Activity [1]	IC50 [2] [µM]	IC50 [3] [µM]	IC50 [4] [µM]
CC(=O)Oc1c(O)c(-c2ccc(O)cc2)c(OC(C)=O)c(O)c1-c1ccc(O)cc1	Active	Active	8.77	> 500	> 500
CC(=O)N(O)CCCCCNC(=O)CCC(=O)N(O)CCCCCNC(=O)CCC(=O)N(O)CCCCCN	Active				
COc1ccc(O)c(C(C)(C)C)c1.COc1ccc(O)cc1C(C)(C)C [BUTYLATED HYDROXYANISOLE]	inactive		10.7	> 500	83
O=C(O)/C=C/c1ccc(O)c(O)c1 [CAFFEIC ACID]			5.37	58	21.1
CC(=O)Oc1c(OC(=O)C[C@@H](C)O)c(-c2ccc(O)cc2)c(OC(=O)CCc2ccccc2)c(OC(=O)C[C@@H](C)O)c1-c1ccc(O)cc1 [CURTISIAN E]	Active	Active	> 500	> 500	> 500
CC(=O)O[C@H](C)CC(=O)Oc1c(O)c(-c2ccc(O)cc2)c(OC(=O)C[C@@H](C)O)c(O)c1-c1ccc(O)cc1 [CURTISIAN I]	Active		60.4	> 500	> 500
CC(=O)O[C@H](C)CC(=O)Oc1c(O)c(-c2ccc(O)cc2)c(OC(=O)CCc2ccccc2)c(O)c1-c1ccc(O)cc1 [CURTISIAN J]	Active		13.5	> 500	> 500
C[C@@H](O)CC(=O)Oc1c(O)c(-c2ccc(O)cc2)c(OC(=O)CCc2ccccc2)c(O)c1-c1ccc(O)cc1 [CURTISIAN K]	Active	Active	11.3	> 500	> 500
CC(=O)Oc1c(O)c(-c2ccc(O)cc2)c(OC(=O)C[C@@H](C)O)c(O)c1-c1ccc(O)cc1 [CURTISIAN L]	Active		18.6	> 500	> 500
CC(=O)O[C@H](C)CC(=O)Oc1c(O)c(-c2ccc(O)cc2)c(OC(=O)C[C@@H](C)OC(C)=O)c(O)c1-c1ccc(O)cc1 [CURTISIAN M]	Active	Active	8.15	> 500	> 500
CC(=O)Oc1c(O)c(-c2ccc(O)cc2)c(OC(=O)C[C@@H](C)OC(C)=O)c(O)c1-c1ccc(O)cc1 [CURTISIAN N]	Active	Active	5.5	> 500	> 500
CCCC(=O)Oc1c(O)c(-c2ccc(O)cc2)c(OC(C)=O)c(O)c1-c1ccc(O)cc1 [CURTISIAN O]	Active	Active	7.11	> 500	> 500
CC(=O)Oc1c(O)c(-c2ccc(O)cc2)c(OC(=O)CCc2ccccc2)c(O)c1-c1ccc(O)cc1 [CURTISIAN P]	Active		6.44	> 500	> 500
O=C(CCc1ccccc1)Oc1c(O)c(-c2ccc(O)cc2)c(OC(=O)CCc2ccccc2)c(O)c1-c1ccc(O)cc1 [CURTISIAN R]	Active		8.02	> 500	> 500
CCCC(=O)Oc1c(O)c(-c2ccc(O)cc2)c(OC(=O)CCc2ccccc2)c(O)c1-c1ccc(O)cc1 [CURTISIAN S]	Active		8.16	> 500	> 500
CC(=O)O[C@H](C)CC(=O)Oc1c(O)c(-c2ccc(O)cc2)c(OC(=O)c2ccccc2)c(O)c1-c1ccc(O)cc1 [CURTISIAN T]	Active		8.43	> 500	> 500
CC(=O)Oc1c(OC(=O)C[C@@H](C)O)c(-c2ccc(O)cc2)c(OC(C)=O)c(OC(=O)C[C@@H](C)O)c1-c1ccc(O)cc1 [CURTISIAN U]	Active		> 500	> 500	> 500
CC(=O)Oc1c(OC(=O)CCc2ccccc2)c(-c2ccc(O)cc2)c(OC(=O)C[C@@H](C)O)c(OC(=O)C[C@@H](C)O)c1-c1ccc(O)cc1 [CURTISIAN V]	Active		> 500	> 500	> 500
Cc1c(C)c2c(c(C)c1O)CCC(C)(C(=O)O)O2 (stereo not drawn) [TROLOX]	Active		7.91	> 500	33
